Test results taken from patent US5210027A, “DNA encoding novel antimicrobial polypeptide and methods for obtaining such polypeptide” (INCYTE Pharmaceuticals, Inc., priority 1991, dated 1993).

Experiments:
Assay type in all cases: cell-based
[1] = test system: Escherichia coli K12 (MC4100); test: Microbicidal assay (colony forming units) against Escherichia coli
Procedure: (§1) Microbicidal activity was routinely tested against Escherichia coli K12 (MC4100), Streptococcus faecalis (ATCC Accession No. 29212) and Candida albicans (clinical isolate). Organisms from a single colony on agar plates were inoculated into liquid medium and cultured overnight at 37° C. Aliquots of the overnight culture were inoculated into fresh nutrient broth and grown to mid-exponential phase. Cultures were then diluted into the test medium to the appropriate concentration.
(§2) Samples from reverse-phase liquid chromatography to be tested for microbicidal activity were dried by vacuum centrifugation in Immulon I microtire plates in the presence of 50 μl 0.1% BSA. Dried samples were resuspended in 0.1% acetic acid and returned to dryness by vacuum centrifugation. Samples were then resuspended in assay buffer and after appropriate dilutions of samples had been made, test organisms were added to the wells and incubation at 37° C. was carried out for 30 to 60 minutes. Killing of all organisms was carried out in 20 mM phosphate pH 6, 0.25M glucose and 0.02% Tween 20 unless otherwise indicated. A volume of the assay mixture corresponding to 200-300 organisms in the control assays were plated onto trypticase soy agar plates (Escherichia coli and Streptococcus faecalis) or spread onto Sabouraud dextrose agar plates (Candida albicans). Colony forming units were determined manually or by automated counting after overnight incubation at 37° C.

[2] = test system: Streptococcus faecalis (ATCC Accession No. 29212); test: Microbicidal assay (colony forming units) against Streptococcus faecalis
Procedure: as §1, §2

[3] = test system: Candida albicans (clinical isolate); test: Microbicidal assay (colony forming units) against Candida albicans; conditions: in vitro
Procedure: as §1
as §2, with “A volume of the assay mixture corresponding to 200-300 organisms in the control assays were plated onto trypticase soy agar plates (Escherichia coli and Streptococcus faecalis) or spread onto Sabouraud dextrose agar plates (Candida albicans).” left out

[4] = in vitro, 20 mM phosphate pH 6, 0.25M glucose, 0.02% Tween 20, 37° C., 30 to 60 minutes, relative to Peak 1 (defensins)

val-cys-ser-cys-arg-leu-val-phe-cys-arg-arg-thr-glu-leu-arg-val-gly-asn-cys-leu-ile-gly-gly-val-ser-phe-thr-tyr-cys-cys-thr-arg-val [Peak 2]
effect of detergents Tween 20 and NP40 on microbicidal activity ([1]; against bacteria, FIG. 7): enhanced | microbicidal activity compared with a mixture of previously described defensins ([1]; in vitro): significantly more active | microbicidal activity, fold more active than Peak 1 [1, 4]: 15-30 fold | effect of detergents Tween 20 and NP40 on microbicidal activity ([2]; against bacteria, FIG. 7): enhanced | microbicidal activity compared with a mixture of previously described defensins ([2]; in vitro): significantly more active | concentration required to reach the indicated levels of killing (50% or 90%), fold less than for Peak 1 [2, 4]: about 100 fold | microbicidal activity compared with a mixture of previously described defensins [3]: significantly more active | microbicidal activity, fold more active than Peak 1 ([3]; 20 mM phosphate pH 6, 0.25M glucose, 0.02% Tween 20, 37° C., 30 to 60 minutes, relative to Peak 1 (defensins)): about 5 fold
